Counter-ions that a name gives are not always drawn.
The molecules below were run against T1, His6-AspH315–758 (human aspartate/asparagine-β-hydroxylase, AspH) (Homo sapiens, UniProt Q12797) (assay: SPE-MS AspH inhibition assay (LOPAC screen at fixed 20 μM and IC50 dose-response), hydroxylation of cyclic peptide hFX-CP101–119). Settings: not given.
T1 construct: N-Terminally His6-tagged human AspH315–758 (His6-AspH315–758) was produced in E. coli BL21 (DE3) cells; made in house; host or cells: E. coli BL21 (DE3), pET-28a(+) vector
T1 sequence (Q12797 315-758): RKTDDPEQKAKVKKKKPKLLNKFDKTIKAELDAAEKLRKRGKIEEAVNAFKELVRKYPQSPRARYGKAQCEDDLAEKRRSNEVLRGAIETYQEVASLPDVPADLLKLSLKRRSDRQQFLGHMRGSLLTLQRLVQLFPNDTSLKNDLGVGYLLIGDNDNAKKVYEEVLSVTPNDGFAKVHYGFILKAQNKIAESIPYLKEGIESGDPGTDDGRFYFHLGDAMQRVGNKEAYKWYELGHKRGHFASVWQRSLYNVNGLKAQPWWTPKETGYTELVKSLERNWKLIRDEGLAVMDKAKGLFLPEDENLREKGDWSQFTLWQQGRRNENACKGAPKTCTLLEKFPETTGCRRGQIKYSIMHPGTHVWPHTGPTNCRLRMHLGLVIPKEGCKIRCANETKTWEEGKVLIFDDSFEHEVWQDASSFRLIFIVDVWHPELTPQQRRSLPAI
Type: biochemical

SMILES	Plate 3 (% conversion) [%]	Plate 2 (% conversion) [%]	Inhibition at 20 µM [%]	Plate 1 (% conversion) [%]	Plate 1 (% inhibition) [%]
N=C(N)SCCc1cnc[nH]1 [Imetit dihydrobromide]	29.48	–	–	–	–
Cl.O=C(O)Cc1c[nH]cn1 [Imidazole-4-acetic acid hydrochloride]	–	36.46	–	–	–
CN[C@@H]1C[C@@H](c2ccc(Cl)c(Cl)c2)c2ccccc21 [Indatraline hydrochloride]	41.79	–	–	–	–
NC(=O)CI [Iodoacetamide, reference compound]	–	–	102.0	–	–
C=C(C)[C@H]1CN[C@H](C(=O)O)[C@H]1CC(=O)O [Kainic acid]	38.81	–	–	–	–
CC(=O)N1CCN(c2ccc(OCC3COC(Cn4ccnc4)(c4ccc(Cl)cc4Cl)O3)cc2)CC1 (centres unmarked) [Ketoconazole]	46.43	–	–	–	–
Ic1ccccc1CNC1C2CCN(CC2)C1C(c1ccccc1)c1ccccc1.O=C(O)C(=O)O [L-703,606 oxalate salt hydrate]	12.64	–	–	–	–
N=C(N)NCCC[C@H](N)C(=O)O [L-Arginine]	–	–	–	38.11	-6.68
NC(N)=NOCC[C@H](N)C(=O)O.O=S(=O)(O)O [L-Canavanine sulfate]	–	–	–	38.13	-6.73

Same assay, conditions: 50 nM His6-AspH315–758, 1.0 μM hFX-CP101–119, 3 μM 2OG, 2 μM Fe(II), 50 mM HEPES pH 7.5, 20 °C; mean ± SD, n = 2 (2,4-PDCA n = 10); read-out: IC50

SMILES	IC50 [µM]
Clc1ccc(N/N=C(\c2ccccc2)c2ccccn2)nc1 [JIB-04, reference compound]	4.24 ± 0.3

Same assay, conditions: 20 µM

SMILES	Plate 2 (% inhibition) [%]
Cl.O=C(O)Cc1c[nH]cn1 [Imidazole-4-acetic acid hydrochloride]	-1.52

Same assay, conditions: AspH activity; fixed compound concentration 20 μM; initial LOPAC screen; 0.5%v/v DMSO

SMILES	Inhibition at 20 µM [%]
Oc1ccc2ccccc2c1SSc1c(O)ccc2ccccc12 [IPA-3, reference compound]	100.0

Same assay, conditions: LOPAC Plate 4, compound at 20 uM

SMILES	% inhibition [%]
O=C(Nc1nc2ccccc2n1CCN1CCOCC1)c1cccc([N+](=O)[O-])c1 [IRAK-1/4 Inhibitor I]	-1.55
N=C(N)SCCc1ccc(OCc2ccc([N+](=O)[O-])cc2)cc1 [KB-R7493]	-22.55

Same assay, conditions: LOPAC Plate 4, compound at 20 uM, substrate conversion

SMILES	% conversion [%]
COc1ccc(/C=C2\COc3ccc(C)cc3C2=O)cc1O [IMS2186]	32.74
Oc1ccc2ccccc2c1SSc1c(O)ccc2ccccc12 [IPA-3, reference compound]	2.34
O=C(Nc1nc2ccccc2n1CCN1CCOCC1)c1cccc([N+](=O)[O-])c1 [IRAK-1/4 Inhibitor I]	37.00
CCCCCN(C)CCC(O)(P(=O)([O-])O)P(=O)(O)O.[Na+] [Ibandronate sodium]	30.05
N=C(N)SCCc1ccc(OCc2ccc([N+](=O)[O-])cc2)cc1 [KB-R7493]	44.17
O=C(c1ccc(F)cc1)C1CCN(CCn2c(=O)[nH]c3ccccc3c2=O)CC1 [Ketanserin tartrate]	19.47
N[C@H](C(=O)O)[C@H](Cc1ccccc1)C(=O)O [L-Beta-threo-benzyl-aspartate]	30.62

Same assay, conditions: LOPAC compound at 20uM, plate 2; conversion of substrate peptide

SMILES	Plate 2 (% conversion) [%]
Cl.Fc1ccc(CN(C2=NCCN2)c2c(Cl)cccc2Cl)cc1 [IMID-4F hydrochloride]	39.35
CC(C)C(=O)c1c(C(C)C)nn2ccccc12 [Ibudilast]	39.05
CC(=O)[C@]1(O)Cc2c(O)c3c(c(O)c2[C@@H](O[C@H]2C[C@H](N)[C@H](O)[C@H](C)O2)C1)C(=O)c1ccccc1C3=O [Idarubicin]	34.69
O=C1CCC(c2ccc(-n3ccnc3)cc2)=NN1 [Imazodan]	38.21
O=C1c2ccccc2C(=O)c2c(NCCc3ccc(O)cc3)ccc(NCCc3ccc(O)cc3)c21 [JFD00244]	12.89
COc1cc(SC)ccc1C(=O)N1CCC(Cc2ccccc2)CC1 [JX401]	45.70
N[C@@H](Cc1ccc(O)c(O)c1)C(=O)O [L-3,4-Dihydroxyphenylalanine]	10.03
Cl.N[C@@H](CCC(=O)O)C(=O)O [L-Glutamic acid hydrochloride]	29.01
NC(=O)CC[C@H](N)C(=O)O [L-Glutamine]	35.03

Same assay, conditions: LOPAC compound at 20uM, plate 2; normalised to DMSO and 2,4-PDCA controls

SMILES	Plate 2 (% inhibition) [%]
Cl.Fc1ccc(CN(C2=NCCN2)c2c(Cl)cccc2Cl)cc1 [IMID-4F hydrochloride]	-10.13
O=C1c2ccccc2C(=O)c2c(NCCc3ccc(O)cc3)ccc(NCCc3ccc(O)cc3)c21 [JFD00244]	68.90
COc1cc(SC)ccc1C(=O)N1CCC(Cc2ccccc2)CC1 [JX401]	-29.09
N[C@@H](Cc1ccc(O)c(O)c1)C(=O)O [L-3,4-Dihydroxyphenylalanine]	77.43
Cl.N[C@@H](CCC(=O)O)C(=O)O [L-Glutamic acid hydrochloride]	20.74

Same assay, conditions: LOPAC compound at 20uM, plate 2; normalised to DMSO and 2,4-PDCA controls; read-out: Plate 2 (% inhibition)

SMILES	inhibition at 20 µM [%]
CC(C)C(=O)c1c(C(C)C)nn2ccccc12 [Ibudilast]	-9.26
CC(=O)[C@]1(O)Cc2c(O)c3c(c(O)c2[C@@H](O[C@H]2C[C@H](N)[C@H](O)[C@H](C)O2)C1)C(=O)c1ccccc1C3=O [Idarubicin]	3.78
O=C1CCC(c2ccc(-n3ccnc3)cc2)=NN1 [Imazodan]	-6.74
NC(=O)CC[C@H](N)C(=O)O [L-Glutamine]	2.77

Same assay, conditions: LOPAC compound at 20uM, plate 3; conversion of substrate peptide

SMILES	Plate 3 (% conversion) [%]
c1ccc2c(c1)OCC(C1=NCCN1)O2 (centres unmarked) [Idazoxan hydrochloride]	39.66
CC(C(O)c1ccc(O)cc1)N1CCC(Cc2ccccc2)CC1.CC(C(O)c1ccc(O)cc1)N1CCC(Cc2ccccc2)CC1.O=C(O)C(O)C(O)C(=O)O (centres unmarked) [Ifenprodil tartrate]	17.74
CC(C)NNC(=O)c1ccncc1.O=P(O)(O)O [Iproniazid phosphate]	39.38
O=C(/C=C/c1ccc(O)cc1)c1ccc(O)cc1O [Isoliquiritigenin]	31.17
CCC(NC(C)C)C(O)c1ccc(O)c(O)c1.CS(=O)(=O)O (centres unmarked) [Isotharine mesylate]	6.91
O=C1Cc2c([nH]c3ccc(Br)cc23)-c2ccccc2N1 [Kenpaullone]	35.01
CC(C(=O)O)c1cccc(C(=O)c2ccccc2)c1 (centres unmarked) [Ketoprofen]	34.58
NC(CO)(CO)CO.O=C(c1ccccc1)c1ccc2n1CCC2C(=O)O (centres unmarked) [Ketorolac tris salt]	36.01
N[C@H](C(=O)O)[C@H](O)c1ccc(O)c(O)c1 [L-DOPS]	7.53

Same assay, conditions: LOPAC compound at fixed 20 uM; plate 1, normalised to DMSO and 2,4-PDCA controls

SMILES	Plate 1 (% inhibition) [%]
C[C@@H](O)[C@H]1C(=O)N2C(C(=O)O)=C(SCCN=CN)C[C@H]12 [Imipenem monohydrate]	6.01
CC(C)(C)NC(=O)[C@@H]1CN(Cc2cccnc2)CCN1C[C@@H](O)C[C@@H](Cc1ccccc1)C(=O)N[C@H]1c2ccccc2C[C@H]1O.O=S(=O)(O)O [Indinavir sulfate salt hydrate]	-10.28
O=C1Nc2ccccc2/C1=C1/Nc2ccccc2/C1=N\O [Indirubin-3-oxime]	11.42
NC[C@H](O)c1ccc(O)c(O)c1.O=C(O)C(O)C(O)C(=O)O [L(-)-Norepinephrine bitartrate]	89.51
N[C@@H](CCCC(=O)O)C(=O)O [L-2-aminoadipic acid]	-2.85
N[C@@H](CC(=O)O)C(=O)O [L-Aspartic acid]	-3.19
CCCCS(=N)(=O)CC[C@H](N)C(=O)O (stereo partly drawn) [L-Buthionine-sulfoximine]	3.50
N[C@H]1CON=C1O [L-Cycloserine]	-2.43
N[C@@H](CS(=O)O)C(=O)O [L-Cysteinesulfinic Acid]	8.76

Same assay, conditions: LOPAC compound at fixed 20 uM; substrate conversion, plate 1

SMILES	Plate 1 (% conversion) [%]
C[C@@H](O)[C@H]1C(=O)N2C(C(=O)O)=C(SCCN=CN)C[C@H]12 [Imipenem monohydrate]	33.85
CC(C)(C)NC(=O)[C@@H]1CN(Cc2cccnc2)CCN1C[C@@H](O)C[C@@H](Cc1ccccc1)C(=O)N[C@H]1c2ccccc2C[C@H]1O.O=S(=O)(O)O [Indinavir sulfate salt hydrate]	39.32
O=C1Nc2ccccc2/C1=C1/Nc2ccccc2/C1=N\O [Indirubin-3-oxime]	32.04
NC[C@H](O)c1ccc(O)c(O)c1.O=C(O)C(O)C(O)C(=O)O [L(-)-Norepinephrine bitartrate]	5.81
N[C@@H](CCCC(=O)O)C(=O)O [L-2-aminoadipic acid]	36.83
N[C@@H](CC(=O)O)C(=O)O [L-Aspartic acid]	36.94
CCCCS(=N)(=O)CC[C@H](N)C(=O)O (stereo partly drawn) [L-Buthionine-sulfoximine]	34.70
N[C@H]1CON=C1O [L-Cycloserine]	36.69
N[C@@H](CS(=O)O)C(=O)O [L-Cysteinesulfinic Acid]	32.93

Reference: article PMC7251097, “Aspartate/asparagine-β-hydroxylase: a high-throughput mass spectrometric assay for discovery of small molecule inhibitors” (Scientific Reports, 2020)
